Values after ≈ are worked out from the molar mass of the structure shown.
Experiments:
Enterococcus sp. = test: in vitro antibacterial evaluation, MIC by broth dilution; format: cell-based; settings: broth dilution, 18 hours at 35° C.
In short: (§1)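 Test organisms, which included recent clinical isolates resistant to methicillin, penicillin and/or vancomycin, were inoculated at 5×10^5 CFU/mL into Muller-Hinton II […] containing antibiotic at 64-0.06 μg/mL. Minimum inhibitory concentrations were then read as the lowest level inhibiting growth.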

Staphylococcus sp. = test: as above; format: cell-based; settings: broth dilution, 18 hours at 35° C.; for MIC Staphylococcus aureus (GC 1131): strain GC 1131; for MIC Staphylococcus aureus (GC 3053): strain GC 3053; for MIC Staphylococcus aureus (GC 4541): strain GC 4541; for MIC Staphylococcus aureus-SMITH (GC 4543): strain GC 4543; for MIC Staphylococcus aureus (GC 4544): strain GC 4544; for MIC Staphylococcus aureus (GC 4545): strain GC 4545; for MIC Staphylococcus haemolyticus (GC 4546): strain GC 4546; for MIC Coagulase Negative Staphylococcus (GC 4547): strain GC 4547; for MIC Coagulase Negative Staphylococcus (GC 4548): strain GC 4548; for MIC Coagulase Negative Staphylococcus (GC 4549): strain GC 4549; for MIC Coagulase Negative Staphylococcus (GC 4551): strain GC 4551; for MIC Coagulase Negative Staphylococcus (GC 6257): strain GC 6257
In short: as §1

Streptococcus sp. = test: as above; format: cell-based; settings: broth dilution, 18 hours at 35° C.
In short: as §1

Escherichia coli = test: as above; format: cell-based; settings: 18 hours at 35° C.
[1] = tested on: Staphylococcus aureus-SMITH (GC 4543); test: acute lethal infection in mice; format: in vivo; settings: acute lethal infection, female CD-1 mice, intraperitoneal challenge, intravenous 30 min. after infection, 7 day survival
In short: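 Female CD-1 mice (20+/−2 gm) were infected intraperitoneally with enough bacteria, suspended in trypticase soy broth or hog gastric mucin, to kill untreated controls within 24-48 hr. Compound in saline or 5% dextrose was given intravenously 30 min post-infection, five mice per dose. ED50 came from pooled 7 day survival of 3 tests.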

[2] = anatomic pathology (histopathology of heart and kidney) in mice; format: in vivo; settings: CD-1 mice, 20 mg/kg intravenously daily for 9 days, necropsy day 10, microscopic histopathology
Procedure: Samples of tissues from necropsied mice were formalin-fixed, paraffin-embedded, sectioned, stained with hematoxylin and eosin, and examined microscopically. Histopathologic findings were recorded. These findings were subjectively graded on a scale corresponding to slight, mild, moderate, marked and severe as compared to untreated controls.

## CC(c1ccccc1)C1NC(=O)CNC(=O)C(CO)NC(=O)C(CC2CNC(=N)N2C2OC(CO)C(O)C(O)C2O)NC(=O)C(CC2CNC(=N)N2)NC(=O)C(Cc2ccc(OC3OC(CO)C(OC4OC5COC6(OC5C(O)C4O)C4CC5CC(C4)CC6C5)C(O)C3O)cc2)NC1=O (stereo not drawn) [Example 219, Cyclo[3-(2-iminoimidazolidin-4-yl)alanyl-3-(3-hexopyranosyl-2-iminoimidazolidin-4-yl)-alanylserylglycyl-β-methylphenylalanyl-O-[4-O-[4,6-O-(2-adamantylidene)hexopyranosyl]-hexopyranosyl]tyrosyl]]
Enterococcus sp.
  MIC Enterococcus avium (GC 4558): 4 µg/mL (≈ 2.87 µM)
  MIC Enterococcus faecalis (ATCC 29212): 16 µg/mL (≈ 11.5 µM)
  MIC Enterococcus faecalis (GC 2242): 8 µg/mL (≈ 5.73 µM)
  MIC Enterococcus faecalis (GC 2691): 8 µg/mL (≈ 5.73 µM)
  MIC Enterococcus faecalis (GC 3059): 16 µg/mL (≈ 11.5 µM)
  MIC Enterococcus faecalis (GC 4552): 8 µg/mL (≈ 5.73 µM)
  MIC Enterococcus faecalis (GC 4553): 8 µg/mL (≈ 5.73 µM)
  MIC Enterococcus faecalis (GC 4554): 8 µg/mL (≈ 5.73 µM)
  MIC Enterococcus faecalis (GC 6189): 8 µg/mL (≈ 5.73 µM)
  MIC Enterococcus faecium (GC 2243): 8 µg/mL (≈ 5.73 µM)
  MIC Enterococcus faecium (GC 4556): 8 µg/mL (≈ 5.73 µM)
  MIC Enterococcus faecium (GC 4557): 4 µg/mL (≈ 2.87 µM)
Enterococcus sp.; inoculum 5×10^5 CFU/mL, strain ATCC 29212
  MIC Enterococcus faecalis (ATCC 29212): 16 µg/mL (≈ 11.5 µM)
Enterococcus sp.; inoculum 5×10^5 CFU/mL, strain GC 2242
  MIC Enterococcus faecalis (GC 2242): 8 µg/mL (≈ 5.73 µM)
Enterococcus sp.; inoculum 5×10^5 CFU/mL, strain GC 2243
  MIC Enterococcus faecium (GC 2243): 8 µg/mL (≈ 5.73 µM)
Enterococcus sp.; inoculum 5×10^5 CFU/mL, strain GC 2691
  MIC Enterococcus faecalis (GC 2691): 8 µg/mL (≈ 5.73 µM)
Enterococcus sp.; inoculum 5×10^5 CFU/mL, strain GC 3059
  MIC Enterococcus faecalis (GC 3059): 16 µg/mL (≈ 11.5 µM)
Enterococcus sp.; inoculum 5×10^5 CFU/mL, strain GC 4552
  MIC Enterococcus faecalis (GC 4552): 8 µg/mL (≈ 5.73 µM)
Enterococcus sp.; inoculum 5×10^5 CFU/mL, strain GC 4553
  MIC Enterococcus faecalis (GC 4553): 8 µg/mL (≈ 5.73 µM)
Enterococcus sp.; inoculum 5×10^5 CFU/mL, strain GC 4554
  MIC Enterococcus faecalis (GC 4554): 8 µg/mL (≈ 5.73 µM)
Enterococcus sp.; inoculum 5×10^5 CFU/mL, strain GC 4556
  MIC Enterococcus faecium (GC 4556): 8 µg/mL (≈ 5.73 µM)
Enterococcus sp.; inoculum 5×10^5 CFU/mL, strain GC 4557
  MIC Enterococcus faecium (GC 4557): 4 µg/mL (≈ 2.87 µM)
Enterococcus sp.; inoculum 5×10^5 CFU/mL, strain GC 4558
  MIC Enterococcus avium (GC 4558): 4 µg/mL (≈ 2.87 µM)
Enterococcus sp.; inoculum 5×10^5 CFU/mL, strain GC 6189
  MIC Enterococcus faecalis (GC 6189): 8 µg/mL (≈ 5.73 µM)
Staphylococcus sp.; strain ATCC 29213
  MIC Staphylococcus aureus (ATCC 29213): 4 µg/mL (≈ 2.87 µM)
Staphylococcus sp.
  MIC Staphylococcus aureus (GC 1131): 4 µg/mL (≈ 2.87 µM)
  MIC Staphylococcus aureus (GC 3053): 2 µg/mL (≈ 1.43 µM)
  MIC Staphylococcus aureus (GC 4541): 2 µg/mL (≈ 1.43 µM)
  MIC Staphylococcus aureus-SMITH (GC 4543): 2 µg/mL (≈ 1.43 µM)
  MIC Staphylococcus aureus (GC 4544): 8 µg/mL (≈ 5.73 µM)
  MIC Staphylococcus aureus (GC 4545): 2 µg/mL (≈ 1.43 µM)
  MIC Staphylococcus haemolyticus (GC 4546): 2 µg/mL (≈ 1.43 µM)
  MIC Coagulase Negative Staphylococcus (GC 4547): 2 µg/mL (≈ 1.43 µM)
  MIC Coagulase Negative Staphylococcus (GC 4548): 2 µg/mL (≈ 1.43 µM)
  MIC Coagulase Negative Staphylococcus (GC 4549): 2 µg/mL (≈ 1.43 µM)
  MIC Coagulase Negative Staphylococcus (GC 4551): 4 µg/mL (≈ 2.87 µM)
  MIC Coagulase Negative Staphylococcus (GC 6257): 1 µg/mL (≈ 0.717 µM)
Staphylococcus sp.; strain GC 3051
  MIC Staphylococcus aureus (GC 3051): 2 µg/mL (≈ 1.43 µM)
Staphylococcus sp.; strain GC 4542
  MIC Staphylococcus aureus (GC 4542): 2 µg/mL (≈ 1.43 µM)
Streptococcus sp.
  MIC Streptococcus agalactiae (GC 4564): 2 µg/mL (≈ 1.43 µM)
  MIC Streptococcus pneumoniae (ATCC 6301): 0.5 µg/mL (≈ 0.358 µM)
  MIC Streptococcus pneumoniae (GC 1894): 1 µg/mL (≈ 0.717 µM)
  MIC Streptococcus pneumoniae (GC 4565): 2 µg/mL (≈ 1.43 µM)
  MIC Streptococcus pyogenes (GC 4563): 2 µg/mL (≈ 1.43 µM)
Streptococcus sp.; inoculum 5×10^5 CFU/mL, strain ATCC 6301
  MIC Streptococcus pneumoniae (ATCC 6301): 0.5 µg/mL (≈ 0.358 µM)
Streptococcus sp.; inoculum 5×10^5 CFU/mL, strain GC 1894
  MIC Streptococcus pneumoniae (GC 1894): 1 µg/mL (≈ 0.717 µM)
Streptococcus sp.; inoculum 5×10^5 CFU/mL, strain GC 4563
  MIC Streptococcus pyogenes (GC 4563): 2 µg/mL (≈ 1.43 µM)
Streptococcus sp.; inoculum 5×10^5 CFU/mL, strain GC 4564
  MIC Streptococcus agalactiae (GC 4564): 2 µg/mL (≈ 1.43 µM)
Streptococcus sp.; inoculum 5×10^5 CFU/mL, strain GC 4565
  MIC Streptococcus pneumoniae (GC 4565): 2 µg/mL (≈ 1.43 µM)
Escherichia coli
  MIC Escherichia coli (ATCC 25922): 64 µg/mL (≈ 45.9 µM)
  MIC Escherichia coli (GC 4559): 64 µg/mL (≈ 45.9 µM)
  MIC Escherichia coli (GC 4560): 4 µg/mL (≈ 2.87 µM)
[1]
  median effective dose (ED50), Staphylococcus aureus-SMITH (GC 4543): 0.5 mg/kg
[2]
  Anatomical Pathology (Day 10), Heart: 0
  Anatomical Pathology (Day 10), Kidney: +++

## CC(c1ccccc1)C1NC(=O)CNC(=O)C(CO)NC(=O)C(C(O)C2CN(Cc3ccc(C(C)(C)C)cc3)C(=N)N2C2OC(CO)C(O)C(O)C2O)NC(=O)C(C(O)C2CNC(=N)N2)NC(=O)C(Cc2ccc(OC3OC(CO)C(OC4OC5COC6(OC5C(O)C4O)C4CC5CC(C4)CC6C5)C(O)C3O)cc2)NC1=O (stereo not drawn) [Example 77]
Enterococcus sp.; Enterococcus avium (GC 4558)
  MIC Enterococcus avium (GC 4558): 4 µg/mL (≈ 2.54 µM)
Enterococcus sp.; Enterococcus faecalis (ATCC 29212)
  MIC Enterococcus faecalis (ATCC 29212): 16 µg/mL (≈ 10.2 µM)
Enterococcus sp.; Enterococcus faecalis (GC 4552)
  MIC Enterococcus faecalis (GC 4552): 16 µg/mL (≈ 10.2 µM)
Enterococcus sp.; Enterococcus faecalis (GC 4553)
  MIC Enterococcus faecalis (GC 4553): 8 µg/mL (≈ 5.08 µM)
Enterococcus sp.; Enterococcus faecalis (GC 6189)
  MIC Enterococcus faecalis (GC 6189): 16 µg/mL (≈ 10.2 µM)
Enterococcus sp.; Enterococcus faecium (GC 2243)
  MIC Enterococcus faecium (GC 2243): 8 µg/mL (≈ 5.08 µM)
Enterococcus sp.; Enterococcus faecium (GC 4556)
  MIC Enterococcus faecium (GC 4556): 16 µg/mL (≈ 10.2 µM)
Enterococcus sp.; Enterococcus faecium (GC 4557)
  MIC Enterococcus faecium (GC 4557): 1 to 2 µg/mL
Enterococcus sp.
  MIC Enterococcus avium (GC 4558): 4 µg/mL (≈ 2.54 µM)
  MIC Enterococcus faecalis (ATCC 29212): 16 µg/mL (≈ 10.2 µM)
  MIC Enterococcus faecalis (GC 2242): 16 µg/mL (≈ 10.2 µM)
  MIC Enterococcus faecalis (GC 2691): 16 µg/mL (≈ 10.2 µM)
  MIC Enterococcus faecalis (GC 3059): 16 µg/mL (≈ 10.2 µM)
  MIC Enterococcus faecalis (GC 4552): 16 µg/mL (≈ 10.2 µM)
  MIC Enterococcus faecalis (GC 4553): 8 µg/mL (≈ 5.08 µM)
  MIC Enterococcus faecalis (GC 4554): 16 to 32 µg/mL
  MIC Enterococcus faecalis (GC 6189): 16 µg/mL (≈ 10.2 µM)
  MIC Enterococcus faecium (GC 2243): 8 µg/mL (≈ 5.08 µM)
  MIC Enterococcus faecium (GC 4556): 16 µg/mL (≈ 10.2 µM)
  MIC Enterococcus faecium (GC 4557): 1 to 2 µg/mL
Enterococcus sp.; strain GC 2242
  MIC Enterococcus faecalis (GC 2242): 16 µg/mL (≈ 10.2 µM)
Enterococcus sp.; strain GC 2691
  MIC Enterococcus faecalis (GC 2691): 16 µg/mL (≈ 10.2 µM)
Enterococcus sp.; strain GC 3059
  MIC Enterococcus faecalis (GC 3059): 16 µg/mL (≈ 10.2 µM)
Staphylococcus sp.
  MIC Staphylococcus aureus (GC 1131): 16 µg/mL (≈ 10.2 µM)
  MIC Staphylococcus aureus (GC 3053): 16 µg/mL (≈ 10.2 µM)
  MIC Staphylococcus aureus (GC 4541): 4 to 8 µg/mL
  MIC Staphylococcus aureus-SMITH (GC 4543): 8 µg/mL (≈ 5.08 µM)
  MIC Staphylococcus aureus (GC 4544): 16 µg/mL (≈ 10.2 µM)
  MIC Staphylococcus aureus (GC 4545): 8 µg/mL (≈ 5.08 µM)
  MIC Staphylococcus haemolyticus (GC 4546): 4 to 8 µg/mL
  MIC Coagulase Negative Staphylococcus (GC 4547): 4 µg/mL (≈ 2.54 µM)
  MIC Coagulase Negative Staphylococcus (GC 4548): 4 µg/mL (≈ 2.54 µM)
  MIC Coagulase Negative Staphylococcus (GC 4549): 4 to 8 µg/mL
  MIC Coagulase Negative Staphylococcus (GC 4551): 8 µg/mL (≈ 5.08 µM)
  MIC Coagulase Negative Staphylococcus (GC 6257): 2 µg/mL (≈ 1.27 µM)
Streptococcus sp.
  MIC Streptococcus agalactiae (GC 4564): 1 µg/mL (≈ 0.635 µM)
  MIC Streptococcus pneumoniae (ATCC 6301): 2 µg/mL (≈ 1.27 µM)
  MIC Streptococcus pneumoniae (GC 1894): 0.25 to 0.5 µg/mL
  MIC Streptococcus pneumoniae (GC 4565): 2 to 4 µg/mL
  MIC Streptococcus pyogenes (GC 4563): 1 µg/mL (≈ 0.635 µM)
Streptococcus sp.; strain ATCC 6301
  MIC Streptococcus pneumoniae (ATCC 6301): 2 µg/mL (≈ 1.27 µM)
Streptococcus sp.; strain GC 4563
  MIC Streptococcus pyogenes (GC 4563): 1 µg/mL (≈ 0.635 µM)
Streptococcus sp.; strain GC 4564
  MIC Streptococcus agalactiae (GC 4564): 1 µg/mL (≈ 0.635 µM)
Streptococcus sp.; strain GC 4565
  MIC Streptococcus pneumoniae (GC 4565): 2 to 4 µg/mL
Escherichia coli
  MIC Escherichia coli (ATCC 25922): >128 µg/mL
  MIC Escherichia coli (GC 4559): >128 µg/mL
  MIC Escherichia coli (GC 4560): 4 µg/mL (≈ 2.54 µM)
[1]
  median effective dose (ED50), Staphylococcus aureus-SMITH (GC 4543): 4 mg/kg
[2]
  Anatomical Pathology (Day 10), Heart: 0
  Anatomical Pathology (Day 10), Kidney: 0

Reference: patent US6914045B2, “Glycopeptide antibiotics” (Wyeth Holdings Corporation, priority 2001, dated 2005)
